Laboratory results taken from patent publication US7022716B2, “Cyclic amine phenyl beta-3 adrenergic receptor agonists” (Wyeth, priority 2000, dated 2006).

target: T1, human β3 adrenergic receptor (Homo sapiens, UniProt P13945); test: cAMP (SPA) response in CHO cells transfected with human β3 adrenergic receptor; format: cell-based; parameters: key: fraction of maximal isoproterenol (10^-5 M) response; settings: maximal response relative to maximal response of isoproterenol at 10^-5 M
T1 construct: Full length β3 AR clones (402 amino acids) containing the last 6 amino acids of hβ3-AR are prepared; expressed in transfected cells; host or cells: CHO (Chinese hamster ovary) cells
T1 sequence (P13945 whole entry): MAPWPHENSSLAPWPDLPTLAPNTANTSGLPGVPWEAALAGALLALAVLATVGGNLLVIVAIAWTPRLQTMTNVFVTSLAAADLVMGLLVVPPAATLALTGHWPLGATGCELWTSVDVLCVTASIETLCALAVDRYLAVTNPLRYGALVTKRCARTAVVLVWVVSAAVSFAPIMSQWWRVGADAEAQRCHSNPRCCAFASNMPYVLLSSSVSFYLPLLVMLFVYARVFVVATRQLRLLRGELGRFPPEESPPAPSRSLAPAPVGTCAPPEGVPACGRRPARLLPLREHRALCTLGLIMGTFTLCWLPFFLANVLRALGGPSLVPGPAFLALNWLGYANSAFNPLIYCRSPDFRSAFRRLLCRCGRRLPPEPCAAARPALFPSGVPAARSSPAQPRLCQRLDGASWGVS
Experimental: Binding to the receptors was measured in Chinese Hamster ovary (CHO) cells that were transfected with adrenergic receptors.
The corresponding primer sequences are described in Mantzoros, C. […] The four fragments are ligated into a pUC 18 plasmid (Gibco-BRL) and sequenced.
CHO cells were grown in 24-well tissue culture plates in Dulbecco's Modified Eagle Media with 10% fetal bovine serum, MEM non-essential amino acids, Penicillin-Streptompycin and Geneticin. On the day of test procedure, growth medium was replaced with preincubation media (Dulbecco's Modified Eagle, Media) and incubated for 30 minutes at 37° C. […] Test compounds were tested over a concentration range of 10^−9 M to 10^−5 M for β3 cells and 10^−8 to 10^−4 M for β1 and β2 transfected cells. Isoproterenol (10^−5 M) was used as an internal standard for comparison of activity. Cells were incubated at 37° C. on a rocker for 30 min with the β3 cells and 15 min for β1 and β2 cells. Incubation was stopped with the addition of 0.2N HCl and neutralized with 2.5N NaOH. The plates, containing the cells and neutralized media, were stored at −20 degrees celsius until ready to test for cAMP using the SPA test kit (Amersham).
Data Analysis and Results: Data collected from the SPA test procedure were analyzed as percent of the maximal isoproterenol response at 10^−5 M. Activity curves were plotted using the SAS statistical and graphics software.

Row | Structure (SMILES) | IA(β3)
1 | COc1ccc(S(=O)(=O)Nc2ccc(N3CC(NC[C@H](O)COc4ccc(O)cc4)C3)cc2)cc1OC [Example 412, N-[4-(3-{[(2S)-2-hydroxy-3-(4-hydroxyphenoxy)propyl]amino}-1-azetidinyl)phenyl]-3,4-dimethoxybenzenesulfonamide] | 0.56
2 | CCCCS(=O)(=O)Nc1ccc(N2CCC(NCC(O)c3ccc(O)c(NS(C)(=O)=O)c3)CC2)cc1 (stereo not shown) [Example 295, N-(4-{4-[(2-Hydroxy-2-{4-hydroxy-3-[(methylsulfonyl)amino]phenyl}ethyl)amino]-1-piperidinyl}phenyl)-1-butanesulfonamide] | 0.87
3 | O=C1NC(=O)C(Cc2ccc(S(=O)(=O)Nc3ccc(N4CCC(NC[C@H](O)COc5cccc6[nH]c(=O)[nH]c56)CC4)cc3)cc2)S1 (stereo partly drawn) [Example 301, 4-[(2,4-Dioxo-1,3-thiazolidin-5-yl)methyl]-N-{4-[4-({(2S)-2-hydroxy-3-[(2-oxo-2,3-dihydro-1H-benzimidazol-4-yl)oxy]propyl}amino)-1-piperidinyl]phenyl}-benzenesulfonamide] | 0.95
4 | COc1ccc(S(=O)(=O)Nc2ccc(N3CCC(NCC(O)c4ccccc4)CC3)cc2)cc1 (stereo not shown) [Example 255, N-{4-[4-(2-Hydroxy-2-phenyl-ethylamino)-piperidin-1-yl]-phenyl}-4-methoxy-benzenesulfonamide] | 0.72
5 | CC(=O)Nc1ccc(S(=O)(=O)Nc2ccc(N3CCC(NCC(O)c4cc(C(N)=O)c5[nH]ccc5c4)CC3)cc2)cc1 (stereo not shown) [Example 273, 5-[2-({1-[4-({[4-(Acetylamino)phenyl]sulfonyl}amino)phenyl]-4-piperidinyl}amino)-1-hydroxyethyl]-1H-indole-7-carboxamide] | 1.05
6 | CC(=O)Nc1ccc(S(=O)(=O)Nc2ccc(N3CCC(NC[C@H](O)c4ccccc4)CC3)cc2)cc1 [Example 258, N-(4-{4-[4-((2R)-2-Hydroxy-2-phenyl-ethylamino)-piperidin-1-yl]-phenylsulfamoyl}-phenyl)-acetamide] | 0.7
7 | COc1ccc(S(=O)(=O)Nc2ccc(N3CCC(NC[C@H](O)COc4cccc5[nH]c(=O)[nH]c45)CC3)cc2)cc1 [Example 330, N-{4-[4-({(2S)-2-Hydroxy-3-[(2-oxo-2,3-dihydro-1H-benzimidazol-4-yl)oxy]propyl}-amino)-1-piperidinyl]phenyl}-4-methoxybenzenesulfonamide] | 0.98
8 | CCCCc1ccc(S(=O)(=O)Nc2ccc(N3CCC(NC[C@H](O)COc4cccc5[nH]c(=O)[nH]c45)CC3)cc2)cc1 [Example 332, 4-Butyl-N-{4-[4-({(2S)-2-hydroxy-3-[(2-oxo-2,3-dihydro-1H-benzimidazol-4-yl)oxy]propyl}amino)-1-piperidinyl]phenyl}benzenesulfonamide.] | 1.1
9 | O=C(CCl)Nc1ccc(N2CCC(NC[C@H](O)COc3cccc4[nH]c(=O)[nH]c34)CC2)cc1 [Example 382, 2-Chloro-N-{4-[4-({(2S)-2-hydroxy-3-[(2-oxo-2,3-dihydro-1H-benzimidazol-4-yl)oxy]propyl}amino)-1-piperidinyl]phenyl}acetamide] | 0.64
10 | O=C1NC(=S)SC1=Cc1ccc(N2CCC(NC[C@H](O)COc3ccc(O)cc3)CC2)cc1 [Example 82, 5-(4-{4-[(2S)-2-Hydroxy-3-(4-hydroxy)-propylamino]-piperidin-1-yl}-benzylidene)-2-thioxo-thiazolidin-4-one] | 1.07
11 | O=S(=O)(Nc1ccc(N2CCC(NCC(O)c3cccc(O)c3)CC2)cc1)c1ccc(Oc2ncc(C(F)(F)F)cc2Cl)cc1 (stereo not shown) [Example 351] | 0.76
12 | CC(=O)Nc1ccc(S(=O)(=O)Nc2ccc(N3CCC(NCC(O)c4ccc(O)cc4O)CC3)cc2)cc1 (stereo not shown) [Example 268, N-(4-{[4-(4-{[2-(2,4-Dihydroxyphenyl)-2-hydroxyethyl]amino}-1-piperidinyl)-anilino]sulfonyl}phenyl)acetamide] | 0.64
13 | CN(C)CC(=O)Nc1ccc(N2CCC(NC[C@H](O)COc3cccc4[nH]c(=O)[nH]c34)CC2)cc1 [Example 384, 2-(Dimethylamino)-N-{4-[4-({(2S)-2-hydroxy-3-[(2-oxo-2,3-dihydro-1H-benzimidazol-4-yl)oxy]propyl}amino)-1-piperidinyl]phenyl}acetamide] | 0.64
14 | O=c1[nH]c2cccc(OC[C@@H](O)CNC3CCN(c4ccc(NS(=O)(=O)c5ccc(Oc6ncc(C(F)(F)F)cc6Cl)cc5)cc4)CC3)c2[nH]1 [Example 350, 4-{[3-Chloro-5-(trifluoromethyl)-2-pyridinyl]oxy}-N-{4-[4-({(2S)-2-hydroxy-3-[(2-oxo-2,3-dihydro-1H-benzimidazol-4-yl)oxy]propyl}amino)-1-piperidinyl]phenyl}-benzenesulfonamide] | 1.26
15 | CCCCCCNC(=O)Nc1ccc(S(=O)(=O)Nc2ccc(N3CCC(NC[C@H](O)c4cccc(Cl)c4)CC3)cc2)cc1 [Example 311, N-[4-(4-{[(2R)-2-(3-Chlorophenyl)-2-hydroxyethyl]amino-}-piperidinyl)phenyl]-4-{[(hexylamino)carbonyl]amino}benzenesulfonamide] | 0.82
16 | CC(=O)Nc1ccc(S(=O)(=O)Nc2ccccc2N2CCC(NCC(O)c3cccc(O)c3)CC2)cc1 (stereo not shown) [Example 264, N-(4-{[2-(4-{[2-Hydroxy-2-(3-hydroxyphenyl)ethyl]amino}-1-piperidinyl)anilino]-sulfonyl}phenyl)acetamide] | 0.37
17 | CC(=O)Nc1ccc(S(=O)(=O)Nc2ccc(N3CCC(NC[C@H](O)COc4cccc5[nH]c6ccccc6c45)CC3)cc2)cc1 [Example 282, N-(4-{[4-(4-{[(2S)-3-(9H-Carbazol-4-yloxy)-2-hydroxypropyl]amino}-1-piperidinyl)-anilino]sulfonyl}phenyl)acetamide] | 0.63
18 | CCCCCCNC(=O)Nc1ccc(S(=O)(=O)Nc2ccc(N3CCC(NC[C@H](O)COc4cccc5[nH]c6ccccc6c45)CC3)cc2)cc1 [Example 290] | 0.72
19 | CCOC(=O)Cc1ccc(S(=O)(=O)Nc2ccc(N3CCC(NC[C@H](O)COc4ccc(O)c(NS(C)(=O)=O)c4)CC3)cc2)cc1 [Example 312, Ethyl{4-[(4-}4-[((2S)-2hydroxy-3-{4-hydroxy-3-[(methylsulfonyl)amino]-phenoxy{propyl)amino]-1-piperidinyl}anilino)sulfonyl]phenyl}acetate] | 1.1
20 | CCOC(=O)c1ccc(N2CCC(NC[C@H](O)c3cccc(Cl)c3)CC2)cc1.Cl [Example 181, {4-[(2R)-2-(3-Chloro-phenyl)-2-hydroxy-ethylamino]-piperidin-1-yl}-benzoic acid ethyl ester hydrochloride] | 0.56
21 | O=c1[nH]c2cccc(OC[C@@H](O)CNC3CCN(c4ccc(NS(=O)(=O)c5cccs5)cc4)CC3)c2[nH]1 [Example 362, N-{4-[4-({(2S)-2-Hydroxy-3-[(2-oxo-2,3-dihydro-1H-benzimidazol-4-yl)oxy]propyl}-amino)-1-piperidinyl]phenyl}-2-thiophenesulfonamide] | 0.9
22 | CCCCOc1ccc(S(=O)(=O)Nc2ccc(N3CCC(NCC(O)c4ccc(O)c(NS(C)(=O)=O)c4)CC3)cc2)cc1 (stereo not shown) [Example 281, 4-Butoxy-N-(4-{4-[2-hydroxy-2-(4-hydroxy-3-methanesulfonylamino-phenyl)-ethylamino]-piperidin-1-yl}-phenyl)-benzenesulfonamide] | 1.14
